In publication PMC11831560, “Development of the Pyrido[2,3-d]pyrimidin-7(8H)-one Scaffold toward Potent and Selective NUAK1 Inhibitors” (ACS Medicinal Chemistry Letters, 2025):
Where “and” joins values, the source holds several entries; their conditions need not be identical. Equal values may be shown once.

How the values were obtained:
MARK2 = target: T1, MARK2 (Homo sapiens, UniProt Q7KZI7); assay: ADP-Glo biochemical assay MARK2; settings: for IC50 / MARK2 pIC50: ADP-Glo assay; for IC50: read-out: MARK2 pIC50 (converted)
T1 construct: purchased MRC PPU
T1 sequence (Q7KZI7 whole entry): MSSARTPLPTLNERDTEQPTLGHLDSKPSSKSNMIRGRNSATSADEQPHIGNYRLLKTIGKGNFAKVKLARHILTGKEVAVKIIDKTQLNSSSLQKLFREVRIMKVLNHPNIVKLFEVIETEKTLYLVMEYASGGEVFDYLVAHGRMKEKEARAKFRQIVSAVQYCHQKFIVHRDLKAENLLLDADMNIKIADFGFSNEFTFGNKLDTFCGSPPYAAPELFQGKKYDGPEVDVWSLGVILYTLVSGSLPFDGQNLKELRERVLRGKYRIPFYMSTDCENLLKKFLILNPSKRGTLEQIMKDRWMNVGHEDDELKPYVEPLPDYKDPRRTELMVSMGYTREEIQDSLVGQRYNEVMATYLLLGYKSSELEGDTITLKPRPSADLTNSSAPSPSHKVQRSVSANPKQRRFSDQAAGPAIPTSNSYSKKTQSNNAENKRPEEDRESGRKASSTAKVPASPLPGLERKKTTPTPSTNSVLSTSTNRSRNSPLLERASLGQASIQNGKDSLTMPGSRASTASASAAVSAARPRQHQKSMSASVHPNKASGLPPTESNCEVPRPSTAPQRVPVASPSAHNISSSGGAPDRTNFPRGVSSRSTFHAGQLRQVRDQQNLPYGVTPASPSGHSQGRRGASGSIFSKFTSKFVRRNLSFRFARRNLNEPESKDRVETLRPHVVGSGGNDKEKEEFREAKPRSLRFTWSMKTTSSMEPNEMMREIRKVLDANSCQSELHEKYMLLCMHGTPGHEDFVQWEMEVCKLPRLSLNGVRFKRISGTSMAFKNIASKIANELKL
Experimental: (§1) Biological experimental procedures
(§2) ADP-Glo biochemical assays
(§3) Protein kinase activity in the presence of inhibitor compounds was determined by ADP-Glo assay (Promega), as previously described.1,2 Compounds were serialised using a Labcyte Echo 520 and transferred to 384 well plates (Greiner 784201) followed by the addition 5 µL of substrate containing peptide and ATP at Km in buffer (see Table S6). 5 µL of purified protein was added and the plate was incubated for 60 minutes at room temperature (ng/well; see Table S6). 3 µL of assay mixture was transferred using an Integra Viaflo384 into a white low volume plate (Greiner 781904) prior to the addition of 3 µL of ADP-Glo Reagent™ for a further 40 minute incubation. After incubation with 6 µL of Kinase Detection Reagent for 30 minutes, plate luminescence was read (Pherastar FSX, BMG […]
(§4) 30 mM HEPES pH7.4, 3 mM MgCl2, 3 mM MnCl2, 1.2 mM DTT, 0.01% CHAPS
(§5) Table S6: Conditions for protein kinase ADP-Glo assays
(§6) ATP AT Peptide Peptide Enzyme Enzyme Assay Buffe Min.
(§7) Protein conc. P Peptide name conc. supplier amount supplier vol. r na […]
(§8) NUAK1 µM µM Sakamototide 50 µM Merck 6.7 ng PPU 10 µl A 6
(§9) A µM µM Sakamototide 100 µM Merck 1 ng PPU 10 µl B 2 […]
(§10) aMin. n: Minimum number of technical replicates per compound

Brain protein binding = format: in vitro ADME; settings: mouse brain tissue, read-out: BPB Fu
Excerpt: (§11) All single point assay determinations carried out in duplicate.

NUAK1 [1] = target: T2, NUAK1 (Homo sapiens, UniProt O60285); assay: ADP-Glo biochemical assay NUAK1; set-up: purchased MRC PPU; settings: for NUAK1 pIC50 / IC50: ADP-Glo assay; for IC50: read-out: NUAK1 pIC50 (converted)
T2 sequence (O60285 1-661): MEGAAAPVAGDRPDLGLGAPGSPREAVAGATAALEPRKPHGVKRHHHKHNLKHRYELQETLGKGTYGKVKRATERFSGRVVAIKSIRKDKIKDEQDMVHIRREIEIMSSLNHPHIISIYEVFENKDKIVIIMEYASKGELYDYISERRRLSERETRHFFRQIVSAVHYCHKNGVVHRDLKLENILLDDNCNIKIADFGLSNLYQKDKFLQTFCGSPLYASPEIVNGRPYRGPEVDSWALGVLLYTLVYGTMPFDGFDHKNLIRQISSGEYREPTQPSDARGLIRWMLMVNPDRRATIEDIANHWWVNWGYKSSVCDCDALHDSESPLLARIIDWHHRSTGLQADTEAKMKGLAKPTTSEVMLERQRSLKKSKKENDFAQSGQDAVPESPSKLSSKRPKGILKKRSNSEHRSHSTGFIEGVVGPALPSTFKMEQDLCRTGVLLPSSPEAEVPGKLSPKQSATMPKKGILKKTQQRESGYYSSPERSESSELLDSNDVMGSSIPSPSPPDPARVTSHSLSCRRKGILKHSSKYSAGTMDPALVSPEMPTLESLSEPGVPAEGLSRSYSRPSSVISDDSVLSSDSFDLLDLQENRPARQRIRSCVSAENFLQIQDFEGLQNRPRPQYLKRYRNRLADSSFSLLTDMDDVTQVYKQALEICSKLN
Experimental: as §1, §2, §3, §4, §5, §6, §7, §8, §9, §10

CDK6/Cyclin D1 = target: T3, CDK6/Cyclin D1 (Homo sapiens, UniProt Q00534); assay: Adapta screening assay (Thermo Fisher); format: biochemical; settings: single point at 1 μM; read-out: CDK6 % Inh.
T3 construct: purchased Thermo Fisher Scientific
T3 sequence (Q00534 whole entry): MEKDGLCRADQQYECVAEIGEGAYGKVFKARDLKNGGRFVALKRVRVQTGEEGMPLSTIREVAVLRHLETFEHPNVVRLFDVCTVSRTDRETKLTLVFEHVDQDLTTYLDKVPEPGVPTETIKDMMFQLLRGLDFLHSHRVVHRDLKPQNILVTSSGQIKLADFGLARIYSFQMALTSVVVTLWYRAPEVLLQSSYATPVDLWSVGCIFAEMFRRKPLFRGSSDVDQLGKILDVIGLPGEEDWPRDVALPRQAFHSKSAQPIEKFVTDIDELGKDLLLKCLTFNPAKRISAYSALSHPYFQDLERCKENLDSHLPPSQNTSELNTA
T3 sequence (P24385 whole entry partner): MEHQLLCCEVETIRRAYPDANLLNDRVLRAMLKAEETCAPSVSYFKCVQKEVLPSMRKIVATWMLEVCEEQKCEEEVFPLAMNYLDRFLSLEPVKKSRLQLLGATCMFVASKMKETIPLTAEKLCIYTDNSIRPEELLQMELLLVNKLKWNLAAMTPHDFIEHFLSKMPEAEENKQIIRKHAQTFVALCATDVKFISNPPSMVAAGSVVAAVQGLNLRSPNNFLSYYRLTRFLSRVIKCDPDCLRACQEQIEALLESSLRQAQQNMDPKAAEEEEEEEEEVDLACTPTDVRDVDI
Excerpt: Activity pIC50 values and standard error of the mean (SEM) were estimated using a 4-parameter fit (Dotmatics). The SEM for all reported data was 0.2 or lower. See Experimental Procedures for minimum number of replicates per compound. Each experiment included a Standard compound whose pIC50 value was compared to a quality control chart. If the Standard pIC50 value fell outside the range of pIC50 +/-3 standard deviation, then the experiment was invalidated. […]
CDK6/cyclin D1: Adapta™ screening assay was performed by Thermo Fisher Scientific. The 2X CDK6/cyclin D1 / Rb Substrate mixture is prepared in 50 mM HEPES pH 7.5, 0.01% BRIJ-35, 10 mM MnCl2, 1 mM EGTA, 2 mM DTT, 0.02% NaN3. The final 10 µL Kinase Reaction consists of 1.75 - 7 ng CDK6/cyclin D1 and 1 µM Rb Substrate in 32.5 mM HEPES pH 7.5, 0.005% BRIJ-35, 5 mM MnCl2, […]
All single point assay determinations carried out in duplicate. […]

MDR1 (P-gp) = assay: MDR1-MDCK permeability (bi-directional); format: in vitro ADME, canine; settings: dog; for efflux ratio at 1 h, 10 µM / efflux ratio at 60 min, 10 µM: MDCK-MDR1, ratio of B-A to A-B permeabilities, read-out: MDCK ER (efflux ratio); for Papp at 60 min, 10 µM: MDR1-MDCK
Excerpt: as §11

Plasma protein binding = format: in vitro ADME; settings: mouse plasma, read-out: PPB Fu
Excerpt: as §11

HIPK3 = HIPK3 (Homo sapiens, UniProt Q9H422); assay: Kinase panel radiometric filter binding (33P-ATP); format: biochemical; set-up: dose or concentration left out as unconfirmed
Sequence of HIPK3 (Q9H422 whole entry): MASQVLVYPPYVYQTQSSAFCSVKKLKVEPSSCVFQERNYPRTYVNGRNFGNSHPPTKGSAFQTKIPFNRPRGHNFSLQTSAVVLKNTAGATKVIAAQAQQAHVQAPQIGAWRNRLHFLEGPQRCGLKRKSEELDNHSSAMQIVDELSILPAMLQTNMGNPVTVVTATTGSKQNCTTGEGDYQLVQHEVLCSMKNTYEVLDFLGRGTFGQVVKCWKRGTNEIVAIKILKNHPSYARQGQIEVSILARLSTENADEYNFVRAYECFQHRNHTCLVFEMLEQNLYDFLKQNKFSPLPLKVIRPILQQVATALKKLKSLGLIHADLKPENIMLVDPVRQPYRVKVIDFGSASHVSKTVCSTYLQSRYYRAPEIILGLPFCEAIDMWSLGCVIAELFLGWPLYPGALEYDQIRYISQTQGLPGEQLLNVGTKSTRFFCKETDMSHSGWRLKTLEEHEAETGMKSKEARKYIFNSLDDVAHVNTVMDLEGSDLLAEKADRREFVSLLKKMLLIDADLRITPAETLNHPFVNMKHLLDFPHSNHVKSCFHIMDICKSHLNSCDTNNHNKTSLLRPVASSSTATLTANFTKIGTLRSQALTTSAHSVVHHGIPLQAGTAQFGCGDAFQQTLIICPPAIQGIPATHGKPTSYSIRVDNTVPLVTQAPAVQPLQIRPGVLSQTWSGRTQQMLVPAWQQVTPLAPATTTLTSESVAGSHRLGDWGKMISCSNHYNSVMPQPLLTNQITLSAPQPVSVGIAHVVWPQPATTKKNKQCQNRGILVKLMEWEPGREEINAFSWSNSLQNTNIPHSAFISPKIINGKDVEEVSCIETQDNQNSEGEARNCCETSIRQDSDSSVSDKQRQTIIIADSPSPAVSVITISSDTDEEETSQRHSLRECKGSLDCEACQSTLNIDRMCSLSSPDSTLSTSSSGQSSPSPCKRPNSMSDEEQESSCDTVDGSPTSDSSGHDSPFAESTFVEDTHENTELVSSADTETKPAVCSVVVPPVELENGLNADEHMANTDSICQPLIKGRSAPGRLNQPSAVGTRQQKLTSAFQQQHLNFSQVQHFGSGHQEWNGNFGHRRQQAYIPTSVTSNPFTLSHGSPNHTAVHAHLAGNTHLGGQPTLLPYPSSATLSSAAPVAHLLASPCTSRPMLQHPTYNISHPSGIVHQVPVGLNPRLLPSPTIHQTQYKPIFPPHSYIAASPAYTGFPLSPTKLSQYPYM
Experimental: (§12) Table S4: AMPKA kinase activity data (ADP-Glo assay)
(§13) Compound pIC50 (Fold selectivity
(§14) Table S5. Kinase selectivity screening for 9 and 24 at 1 µM against a general kinase panel of 140 targets
(§15) in radiometric filter binding assay using 33P-γ−ATP at the MRC PPU International Centre for Kinase
(§16) Profiling, University of Dundee. pIC50 values were determined for compounds with <20% activity
(§17) Kinase activity s.d. pIC50 activity s.d. pIC50

SGK1 = SGK1 (Homo sapiens, UniProt O00141); assay: Kinase panel radiometric filter binding (33P-ATP); format: biochemical; set-up: dose or concentration left out as unconfirmed
Sequence of SGK1 (O00141 whole entry): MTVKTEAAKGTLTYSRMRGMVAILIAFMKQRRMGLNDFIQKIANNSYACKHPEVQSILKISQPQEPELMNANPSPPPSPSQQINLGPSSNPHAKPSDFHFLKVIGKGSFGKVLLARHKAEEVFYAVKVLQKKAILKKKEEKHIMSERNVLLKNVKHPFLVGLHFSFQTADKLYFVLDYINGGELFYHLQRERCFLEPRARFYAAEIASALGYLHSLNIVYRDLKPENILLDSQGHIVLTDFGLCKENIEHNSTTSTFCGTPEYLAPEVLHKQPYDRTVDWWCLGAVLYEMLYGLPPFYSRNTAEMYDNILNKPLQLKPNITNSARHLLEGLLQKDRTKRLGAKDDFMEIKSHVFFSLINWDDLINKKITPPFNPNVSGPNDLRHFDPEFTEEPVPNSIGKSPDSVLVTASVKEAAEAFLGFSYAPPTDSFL
Experimental: as §12, §13, §14, §15, §16, §17

TBK1 = TBK1 (Homo sapiens, UniProt Q9UHD2); assay: Kinase panel radiometric filter binding (33P-ATP); format: biochemical
Sequence of TBK1 (Q9UHD2 whole entry): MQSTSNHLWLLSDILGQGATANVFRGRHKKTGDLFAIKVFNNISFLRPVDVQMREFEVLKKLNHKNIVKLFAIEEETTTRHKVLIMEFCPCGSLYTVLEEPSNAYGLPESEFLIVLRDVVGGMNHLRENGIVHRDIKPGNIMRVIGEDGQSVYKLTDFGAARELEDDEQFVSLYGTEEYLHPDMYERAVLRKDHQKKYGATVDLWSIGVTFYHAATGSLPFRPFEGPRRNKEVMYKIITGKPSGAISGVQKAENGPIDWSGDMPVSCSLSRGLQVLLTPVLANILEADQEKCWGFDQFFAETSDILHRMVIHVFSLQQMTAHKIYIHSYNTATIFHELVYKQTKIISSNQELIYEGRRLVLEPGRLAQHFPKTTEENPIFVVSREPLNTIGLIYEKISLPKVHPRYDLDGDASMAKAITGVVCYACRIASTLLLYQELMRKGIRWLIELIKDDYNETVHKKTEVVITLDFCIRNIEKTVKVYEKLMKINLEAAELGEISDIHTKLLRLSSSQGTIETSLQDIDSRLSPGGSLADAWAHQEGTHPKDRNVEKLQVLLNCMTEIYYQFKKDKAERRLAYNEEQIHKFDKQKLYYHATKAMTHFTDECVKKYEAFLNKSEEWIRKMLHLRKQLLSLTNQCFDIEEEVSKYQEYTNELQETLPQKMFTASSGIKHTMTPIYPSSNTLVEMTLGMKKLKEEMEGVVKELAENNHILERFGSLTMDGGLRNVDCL
Experimental: as §12, §13, §14, §15, §16, §17

TLK1 = TLK1 (Homo sapiens, UniProt Q9UKI8); assay: Kinase panel radiometric filter binding (33P-ATP); format: biochemical
Sequence of TLK1 (Q9UKI8 whole entry): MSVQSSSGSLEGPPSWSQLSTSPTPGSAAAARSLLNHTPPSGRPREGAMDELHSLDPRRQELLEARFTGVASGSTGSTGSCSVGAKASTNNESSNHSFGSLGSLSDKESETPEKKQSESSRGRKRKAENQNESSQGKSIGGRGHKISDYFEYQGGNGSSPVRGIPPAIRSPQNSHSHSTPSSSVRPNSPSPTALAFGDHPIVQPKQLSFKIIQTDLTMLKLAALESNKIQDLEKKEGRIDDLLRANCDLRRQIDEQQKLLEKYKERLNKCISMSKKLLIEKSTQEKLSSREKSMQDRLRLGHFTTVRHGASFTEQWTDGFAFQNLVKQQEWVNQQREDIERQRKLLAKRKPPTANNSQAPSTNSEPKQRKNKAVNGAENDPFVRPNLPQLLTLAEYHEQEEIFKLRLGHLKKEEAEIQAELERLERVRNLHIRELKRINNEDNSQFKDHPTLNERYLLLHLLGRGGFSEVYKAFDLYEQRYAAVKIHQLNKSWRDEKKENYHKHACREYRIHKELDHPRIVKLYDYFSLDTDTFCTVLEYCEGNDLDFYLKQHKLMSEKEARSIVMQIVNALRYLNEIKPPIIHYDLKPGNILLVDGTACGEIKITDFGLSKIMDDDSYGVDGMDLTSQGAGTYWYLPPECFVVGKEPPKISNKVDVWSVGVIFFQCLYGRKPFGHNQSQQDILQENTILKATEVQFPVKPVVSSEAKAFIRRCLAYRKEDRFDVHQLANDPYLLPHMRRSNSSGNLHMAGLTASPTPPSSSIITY
Experimental: as §12, §13, §14, §15, §16, §17

p38g MAPK = p38g MAPK (Homo sapiens, UniProt P53778); assay: Kinase panel radiometric filter binding (33P-ATP); format: biochemical
Sequence of p38g MAPK (P53778 whole entry): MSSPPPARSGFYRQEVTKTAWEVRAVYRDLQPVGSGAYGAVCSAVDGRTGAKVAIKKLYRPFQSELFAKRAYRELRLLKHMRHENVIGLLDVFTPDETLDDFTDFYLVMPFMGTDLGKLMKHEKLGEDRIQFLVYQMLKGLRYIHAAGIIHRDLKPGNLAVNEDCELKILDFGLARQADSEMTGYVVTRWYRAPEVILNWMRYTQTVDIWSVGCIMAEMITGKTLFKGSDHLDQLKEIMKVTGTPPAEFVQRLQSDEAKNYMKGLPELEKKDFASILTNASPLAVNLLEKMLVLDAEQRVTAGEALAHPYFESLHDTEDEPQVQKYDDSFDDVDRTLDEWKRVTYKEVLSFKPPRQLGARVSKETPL
Experimental: as §12, §13, §14, §15, §16, §17

in vivo = settings: male, CD-1, mouse, ip, 5 mg/kg
Experimental: (§18) To investigate the effect of increasing mouse microsomal stability on in vivo half-lives, 9, 10 and 24 were coadministered with 3 in a mouse PK cassette (5 mgkg^–1, I.P.) (Table 5).
ADMET and PK experimental methods
(§19) Microsomal stability: analysis was performed by Cyprotex Discovery. Briefly, test compounds in
(§20) microsomes (0.5 mg protein/mL) in the presence of NADPH (1 mM) at 37 °C. Aliquots were taken at
(§21) generic LC-MS/MS conditions for compound remaining, allowing the determination of the half-life for
(§22) MDR1-MDCK Permeability (bi-directional): was performed by Cyprotex Discovery. Briefly,
(§23) compounds were administered at 10 µM (1% DMSO final) to the apical or basolateral side of a
(§24) confluent monolayer of MDR1- MDCK cells, then incubated at 37 °C for 60 minutes before appearance
(§25) on the opposite side of the monolayer was determined LC-MS/MS. The efflux ratio (ER) is calculated
(§26) from the ratio of B-A to A-B permeabilities.
(§27) Plasma protein binding: was performed by ChemPartner Co. Ltd. Briefly, compounds in DMSO (1
(§28) µM, 0.2% DMSO final) were added to mouse plasma or brain tissue and dialysed against buffer for 5
(§29) hrs at 37 °C. The compound concentration in each of the plasma and buffer compartments was
(§30) determined by mass spectrometry and used to calculate the percentage compound bound.
(§31) Pharmacokinetic analysis: was performed by ChemPartner Co. Ltd. Male CD-1 mice (N=3 per
(§32) timepoint) were intraperitoneally dosed at 5 mg/kg, as a cassette of five compounds, formulated in 10%
(§33) DMSO, 10% Solutol HS 15, 80% (50 mM citrate buffer pH3.0) at 0.5 mg/mL. At the designated time
(§34) points a blood sample was collected from the facial vein into K2EDTA tubes, and plasma separated by
(§35) centrifugation. Mice were euthanised by CO2 inhalation and brains were dissected and homogenised.
(§36) Compound levels were quantified by LC-MS/MS and PK parameters estimated by a non-compartmental
model using WinNonlin 8.2.

NUAK1 [2] = target: T2, NUAK1; assay: Kinase panel radiometric filter binding (33P-ATP); format: biochemical; set-up: purchased MRC PPU; dose or concentration left out as unconfirmed
Experimental: as §12, §13, §14, §15, §16, §17

[3] = Mouse PK cassette (5 mg/kg, I.P.); settings: for Kp uu at 0.5 h: brain / plasma (unbound); for Kp at 0.5 h: brain / plasma; for AUCinf / Plasma t1/2: mouse, I.P., cassette
Experimental: as §18
ADMET and PK experimental methods
as §19, §20, §21, §22, §23, §24, §25, §26, §27, §28, §29, §30, §31, §32, §33, §34, §35, §36
model using WinNonlin 8.2.

IC50 (MARK2) | MARK2 Fold selectivity IC50/NUAK1 IC50 (MARK2) | NUAK1 pIC50 (NUAK1 [1]) | IC50 (NUAK1 [1]) | MARK2 pIC50 (MARK2) | SMILES | fraction unbound at 5 h, 1 µM (Brain protein binding) | inhibition at 1 µM (CDK6/Cyclin D1) | efflux ratio at 1 h, 10 µM (MDR1 (P-gp)) | Papp at 60 min, 10 µM (MDR1 (P-gp)) | Kp uu at 0.5 h ([3]; male, CD-1, mouse, ip) | Kp at 0.5 h ([3]; male, CD-1, mouse, ip) | AUCinf [3] | Plasma t1/2 [3] | also measured
2.04 µM | 603 fold | 8.5 | 0.00339 µM |  | CC(C)N1CCN(c2ccc(Nc3ncc4ccn(CC5CCCO5)c4n3)cc2)CC1 (stereo not shown) [Compound 27] | 0.039 |  |  |  |  |  |  |  | 
4.47 µM | 1072 fold | 8.38 and 8.4 |  | 5.4 | CC(C)N1CCN(c2ccc(Nc3ncc4c(n3)N(C3CCCC3)C(=O)C4)cc2)CC1 [Compound 7] |  | 59% |  |  |  |  |  |  | ligand efficiency (NUAK1 [1]): 0.38
 | 417 fold | 8.3 | 0.00457 µM | 5.72 and 5.7 | CC(C)N1CCN(c2ccc(Nc3ncc4ccn(C5CCCC5)c4n3)cc2)CC1 [Compound 8] |  | 79% |  |  |  |  |  |  | ligand efficiency (NUAK1 [1]): 0.39
3.39 µM | 741 fold | 8.3 | 0.00457 µM | 5.5 | Cc1cc(=O)n(C2CCCC2)c2nc(Nc3ccc(N4CCN(C)CC4)cc3)ncc12 [Compound 4] |  | 87% |  |  |  |  |  |  | 
11.2 µM | 4074 fold | 8.6 | 0.00275 µM |  | CC(C)N1CCN(c2ccc(Nc3ncc4ccn(CC5CCOC(C)(C)C5)c4n3)cc2)CC1 (stereo not shown) [Compound 26] |  |  |  |  |  |  |  |  | 

Second part, the compound before the results:

SMILES | IC50 (MARK2) | MARK2 Fold selectivity IC50/NUAK1 IC50 (MARK2) | NUAK1 pIC50 (NUAK1 [1]) | IC50 (NUAK1 [1]) | MARK2 pIC50 (MARK2) | fraction unbound at 5 h, 1 µM (Brain protein binding) | inhibition at 1 µM (CDK6/Cyclin D1) | efflux ratio at 1 h, 10 µM (MDR1 (P-gp)) | Papp at 60 min, 10 µM (MDR1 (P-gp)) | Kp uu at 0.5 h ([3]; male, CD-1, mouse, ip) | Kp at 0.5 h ([3]; male, CD-1, mouse, ip) | AUCinf [3] | Plasma t1/2 [3] | also measured
Cc1cc(=O)n(C2CCCC2)c2nc(Nc3ccc(N4CC5CC(C4)N5C)cc3)ncc12 [Compound 9] |  |  | 8.3 | 0.0055 µM |  | 0.006 | 67% | 4.8 | 1.01 ×10⁻⁶ cm/s | 0.4 | 0.8 | 1358 ng·h/mL | 54 min | fraction unbound at 5 h, 1 µM (Plasma protein binding): 0.011; % activity remaining (HIPK3): 112%; % activity remaining (SGK1): 96%; % activity remaining (TBK1): 66%; % activity remaining (TLK1): 59%; % activity remaining (p38g MAPK): 97%; concentration at 30 min (in vivo): 573 ng/mL; concentration at 2 h (in vivo): 176 ng/mL; % activity remaining (NUAK1 [2]): 5%
CN1C2CC1CN(c1ccc(Nc3ncc4ccn(CC5CCCO5)c4n3)cc1)C2 (stereo not shown) [Compound 28] | 5.75 µM | 1047 fold | 8.3 | 0.0055 µM |  |  |  |  |  |  |  |  |  | 
CN1C2CC1CN(c1ccc(Nc3ncc4ccn(CC5CCOCC5)c4n3)cc1)C2 [Compound 24] |  | 4898 fold | 8.5 |  | 4.81 and 4.8 | 0.09 | 11% | 71 | 1.05 ×10⁻⁶ cm/s | 0.52 | 0.9 | 365 ng·h/mL | 42 min | efflux ratio at 60 min, 10 µM (MDR1 (P-gp)): 70.8; fraction unbound at 5 h, 1 µM (Plasma protein binding): 0.152; % activity remaining (HIPK3): 73%; % activity remaining (SGK1): 72%; % activity remaining (TBK1): 41%; % activity remaining (TLK1): 86%; % activity remaining (p38g MAPK): 92%; concentration at 30 min (in vivo): 220 ng/mL; concentration at 2 h (in vivo): 26.9 ng/mL; % activity remaining (NUAK1 [2]): 14%
Cc1cc(=O)n(C(C)C)c2nc(Nc3ccc(N4CC5CC(C4)N5C)cc3)ncc12 [Compound 20] |  |  | 7.68 and 7.7 |  |  |  | 39% |  |  |  |  |  |  | 
CN1C2CC1CN(c1ccc(Nc3ncc4cc(C#N)c(=O)n(C5CCCC5)c4n3)cc1)C2 [Compound 10] |  |  | 7.8 | 0.0148 µM |  | 0.01 | 96% | 50 | 1.24 ×10⁻⁶ cm/s | 0.37 | 0.7 | 1131 ng·h/mL | 66 min | efflux ratio at 60 min, 10 µM (MDR1 (P-gp)): 49.5; fraction unbound at 5 h, 1 µM (Plasma protein binding): 0.019; concentration at 30 min (in vivo): 293 ng/mL; concentration at 2 h (in vivo): 146 ng/mL
CN1CCN(c2ccc(Nc3ncc4cc(C#N)c(=O)n(C5CCCC5)c4n3)cc2)CC1 [Compound 3, Narazaciclib, reference compound] |  | 603 fold | 7.58 |  | 4.8 | 0.012 |  | 5.6 | 1.98 ×10⁻⁶ cm/s | 0.29 | 1.9 | 897 ng·h/mL | 54 min | ligand efficiency (NUAK1 [1]): 0.33; concentration at 30 min ([3]; male, CD-1, mouse, brain, ip): 1160 ng/mL; concentration at 2 h ([3]; male, CD-1, mouse, brain, ip): 181 ng/mL
